Results published in patent publication US20240376099A1, “COMPOUNDS AND COMPOSITIONS AS INHIBITORS OF ENDOSOMAL TOLL-LIKE RECEPTORS” (Novartis AG, priority 2016, published 2024).

Columns and labels:
Assay type in all cases: cell-based
TLR9 = molecular target: T1, TLR9 (Homo sapiens, UniProt Q9NR96); test: huPBMC TLR9 Antagonist IFNα Assay; conditions: human PBMCs stimulated with ODN2216 0.3 μM, 14-16 hrs; IFNα2b AlphaLISA read-out
T1 construct: Fresh blood was collected from normal human donors; endogenous in cells; host or cells: human PBMCs from fresh donor blood
T1 sequence (Q9NR96 26-1032): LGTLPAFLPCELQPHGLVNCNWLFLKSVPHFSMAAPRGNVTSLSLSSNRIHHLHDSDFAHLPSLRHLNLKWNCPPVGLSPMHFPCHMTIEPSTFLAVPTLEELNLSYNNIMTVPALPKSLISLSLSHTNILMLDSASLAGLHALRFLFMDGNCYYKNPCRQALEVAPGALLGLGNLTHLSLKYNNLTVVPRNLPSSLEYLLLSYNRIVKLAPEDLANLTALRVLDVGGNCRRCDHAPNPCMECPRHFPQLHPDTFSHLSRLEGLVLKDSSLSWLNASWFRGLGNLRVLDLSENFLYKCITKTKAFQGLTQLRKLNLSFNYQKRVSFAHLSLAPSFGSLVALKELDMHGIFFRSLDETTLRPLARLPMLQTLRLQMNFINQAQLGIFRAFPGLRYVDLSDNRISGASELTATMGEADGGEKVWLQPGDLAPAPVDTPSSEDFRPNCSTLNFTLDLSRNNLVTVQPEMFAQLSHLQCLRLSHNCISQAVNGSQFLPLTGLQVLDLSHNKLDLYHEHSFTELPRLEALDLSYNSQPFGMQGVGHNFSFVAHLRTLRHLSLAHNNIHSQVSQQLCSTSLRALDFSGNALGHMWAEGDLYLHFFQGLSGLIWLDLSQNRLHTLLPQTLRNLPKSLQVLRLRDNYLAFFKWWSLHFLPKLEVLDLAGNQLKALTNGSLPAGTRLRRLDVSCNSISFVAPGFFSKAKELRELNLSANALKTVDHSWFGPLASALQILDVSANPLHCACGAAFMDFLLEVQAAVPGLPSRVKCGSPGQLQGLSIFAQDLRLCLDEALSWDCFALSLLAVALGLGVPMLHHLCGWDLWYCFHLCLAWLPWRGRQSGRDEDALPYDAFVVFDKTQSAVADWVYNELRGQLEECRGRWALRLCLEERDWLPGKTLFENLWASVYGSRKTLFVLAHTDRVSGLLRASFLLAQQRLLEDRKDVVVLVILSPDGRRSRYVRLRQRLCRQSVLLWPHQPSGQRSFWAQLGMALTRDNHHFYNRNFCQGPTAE
Method: (§1) Compounds were generally serially diluted (1/3) in DMSO and plated on sterile 384 well tissue culture plates and stored until ready for use. Each ten-point dilution was typically plated in triplicate in parallel rows.
(§2) Fresh blood was collected from normal human donors underwritten informed consent in heparinized syringes on the morning of the assay. The blood was diluted in RPMI-1640 medium and the white blood cells were separated from red blood cells by centrifugation (800 g 15′ 0 acceleration, 0 brake) on a Ficoll cushion. Peripheral blood mononuclear cells (PBMCs) were separated from platelets by a series of low-speed centrifugations (1000RPM 10′) in PBS+5% HI—FBS and 1 mM EDTA. Purified PBMCs were re-suspended in assay medium (RPMI-1640 w Glutamax (Invitrogen) supplemented with 5% HI—FBS, 10 mM HEPES, 50 uM β-mercaptoethanol, and 100 mG/L penicillin/streptomycin cocktail). Viable PBMCs were counted on a hemacytometer and kept on ice until ready for plating.
(§3) A 4× concentration (4 ug/ml or 40 ug/ml for TLR8 or TLR7 assays, respectively) of the TLR7/8 agonist ssRNA40 (IDT) was complexed with 10% DOTAP (Roche) in assay medium for 30 min prior to addition to the PBMC suspension (5 million cells/ml). After addition, the final concentration of ssRNA40 in the TLR7/8 stimulated PBMC suspension was 1 μg/ml for TLR8 assay, and 10 μg/mL for the TLR7 assay. The final DOTAP concentration was 2.5%. Diluted PBMCs (5 million cells/ml) were treated with 4×TLR9 agonist ODN2216 (Invivogen). Final concentration of ODN2216 in TLR9 stimulated PBMC suspension was 0.3 μM.
(§4) Agonist stimulated PBMCs were plated on the compound treated 384 well plates at 150,000 cells/well. Un-stimulated PBMCs were plated as controls on each plate. Plating volume was 40 μL per well. DMSO concentration in each well was 0.25%.
(§5) A separate plate, without compounds, with titrations of ssRNA40 and ODN2216 was included in every assay to measure agonist response of each donor's PBMC prep. Assay plates were placed in a tissue culture incubator (37° C., 5% CO2) for 14-16 hrs. After this incubation, the plates were centrifuged and stored at −20° C. until they were assayed.
(§6) IL-6 TR-FRET Assay for TLR8 activity: • 1) Cisbio Human IL-6 kit, 20,000 tests (62TNFPEC), and GNF High-Base TC 384 well plates (cat #789163G) were used; • 2) the Anti-TIL-6 Cryptate conjugate and the Anti-IL-6 XL665 conjugate were diluted 1:20 in Reconstitution Buffer; • 3) a 1:1 mixture of 3 μl/well Anti-IL-6 Cryptate conjugate and 3 μl/well Anti-IL-6 XL665 conjugate was prepared; • 4) 6 μl/well HTRF dilution mastermix was added to 6 μl of transferred supernatant samples in proxiplates; • 5) The plates were incubated for 3 hrs at rt in the dark; and • 6) the levels of IL-6 production was measured using an Envision plate reader (665 nm (emmission)/590 nm (excitation)) with HTRF settings and ratiometric read-out: (XL665 emission/Eu Cryptate emission)×10,000. IFNα2b AlphaLISA Assay for TLR7 or TLR9 activity After thawing the assay plates, 6 μL of supernatant samples were transferred to a low-volume AlphaPlate 384SW (Perkin-Elmer). The concentration of IFNα in supernatants was measured using the IFNα2b AlphaLISA Assay (Perkin-Elmer: AL297F). 3 μL of IFNα acceptor beads/biotinylated antibody solution was added first, using laboratory automation. After an hour incubation, […] of streptavidin […] bead solution was added. The plates containing this mixture were incubated in the dark for an hour and read on an appropriate plate reader at reading parameters set by the manufacturer. (Envision, EnSpire: Perkin-Elmer).

TLR7 = molecular target: T2, TLR7 (Homo sapiens, UniProt Q9NYK1); test: huPBMC TLR7 Antagonist IFNα Assay; conditions: human PBMCs stimulated with ssRNA40 10 μg/mL (DOTAP), 14-16 hrs; IFNα2b AlphaLISA read-out
T2 construct: Fresh blood was collected from normal human donors; endogenous in cells; host or cells: human PBMCs from fresh donor blood
T2 sequence (Q9NYK1 27-1049): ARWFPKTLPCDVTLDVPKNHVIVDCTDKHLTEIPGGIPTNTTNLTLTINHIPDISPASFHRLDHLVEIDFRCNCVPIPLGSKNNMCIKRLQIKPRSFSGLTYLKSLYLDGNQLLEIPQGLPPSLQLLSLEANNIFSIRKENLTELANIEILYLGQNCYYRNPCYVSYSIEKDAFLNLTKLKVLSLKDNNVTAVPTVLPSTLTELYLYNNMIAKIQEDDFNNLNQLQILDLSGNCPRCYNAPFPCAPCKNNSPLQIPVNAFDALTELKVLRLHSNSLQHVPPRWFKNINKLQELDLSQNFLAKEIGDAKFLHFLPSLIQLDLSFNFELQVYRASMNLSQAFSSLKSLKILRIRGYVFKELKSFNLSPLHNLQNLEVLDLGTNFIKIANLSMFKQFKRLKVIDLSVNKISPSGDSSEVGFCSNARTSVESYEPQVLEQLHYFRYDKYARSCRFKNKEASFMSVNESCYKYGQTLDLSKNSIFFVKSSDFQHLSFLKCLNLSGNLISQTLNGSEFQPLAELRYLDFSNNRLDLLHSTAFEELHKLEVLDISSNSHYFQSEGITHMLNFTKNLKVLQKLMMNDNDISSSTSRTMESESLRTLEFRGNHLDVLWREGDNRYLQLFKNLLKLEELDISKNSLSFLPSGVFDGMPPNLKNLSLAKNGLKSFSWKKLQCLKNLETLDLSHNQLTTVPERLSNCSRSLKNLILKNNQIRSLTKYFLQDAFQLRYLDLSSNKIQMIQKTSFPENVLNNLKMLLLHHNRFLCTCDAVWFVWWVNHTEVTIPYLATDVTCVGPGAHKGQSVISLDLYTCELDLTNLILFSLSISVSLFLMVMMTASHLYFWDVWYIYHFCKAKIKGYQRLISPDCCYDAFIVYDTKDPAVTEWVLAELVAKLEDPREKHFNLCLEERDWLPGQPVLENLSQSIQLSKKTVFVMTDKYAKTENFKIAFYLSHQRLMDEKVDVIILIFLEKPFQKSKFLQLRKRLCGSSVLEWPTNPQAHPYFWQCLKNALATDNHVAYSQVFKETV
Method: as §1, §2, §3, §4, §5, §6

TLR8 = molecular target: T3, TLR8 (Homo sapiens, UniProt Q9NR97); test: huPBMC TLR8 Antagonist IL-6 TR-FRET Assay; set-up: Fresh blood was collected from normal human donors; endogenous in cells; host or cells: human PBMCs from fresh donor blood; conditions: human PBMCs stimulated with ssRNA40 1 μg/ml (DOTAP), 14-16 hrs; IL-6 TR-FRET read-out
T3 sequence (Q9NR97 27-1041): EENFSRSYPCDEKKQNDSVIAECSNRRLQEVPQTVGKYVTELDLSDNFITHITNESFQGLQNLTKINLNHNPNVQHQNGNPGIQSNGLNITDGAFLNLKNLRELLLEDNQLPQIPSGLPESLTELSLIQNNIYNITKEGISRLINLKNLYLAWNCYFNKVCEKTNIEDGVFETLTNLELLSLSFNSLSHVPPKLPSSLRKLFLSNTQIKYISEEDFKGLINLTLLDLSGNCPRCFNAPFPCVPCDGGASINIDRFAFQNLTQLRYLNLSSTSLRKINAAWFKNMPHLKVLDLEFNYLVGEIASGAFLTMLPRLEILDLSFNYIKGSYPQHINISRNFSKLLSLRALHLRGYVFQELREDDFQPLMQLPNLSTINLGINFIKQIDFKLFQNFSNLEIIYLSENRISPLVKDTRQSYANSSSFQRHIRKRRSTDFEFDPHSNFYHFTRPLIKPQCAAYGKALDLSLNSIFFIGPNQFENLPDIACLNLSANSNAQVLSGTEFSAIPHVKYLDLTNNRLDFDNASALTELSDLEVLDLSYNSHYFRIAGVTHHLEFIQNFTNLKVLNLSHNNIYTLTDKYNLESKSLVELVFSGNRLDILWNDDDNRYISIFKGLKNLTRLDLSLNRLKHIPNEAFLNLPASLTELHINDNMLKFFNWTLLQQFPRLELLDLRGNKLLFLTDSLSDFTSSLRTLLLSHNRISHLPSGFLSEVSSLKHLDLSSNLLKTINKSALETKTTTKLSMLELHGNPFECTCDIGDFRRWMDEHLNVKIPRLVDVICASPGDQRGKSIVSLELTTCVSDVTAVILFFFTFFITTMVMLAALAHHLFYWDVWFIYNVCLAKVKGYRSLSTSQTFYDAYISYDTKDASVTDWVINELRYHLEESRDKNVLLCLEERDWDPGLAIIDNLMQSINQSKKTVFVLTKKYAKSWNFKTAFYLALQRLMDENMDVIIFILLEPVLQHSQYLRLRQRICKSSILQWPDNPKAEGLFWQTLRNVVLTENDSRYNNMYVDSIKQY
Outline: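 Human PBMCs from fresh donor blood (150,000 cells/well) stimulated 14–16 h at 37 °C with DOTAP-complexed ssRNA40 (final 1 μg/ml for TLR8, 10 μg/mL for TLR7) or ODN2216 (final 0.3 μM, TLR9), 0.25% DMSO, ten-point 1/3 compound dilutions. Supernatant IL-6 read by HTRF (TLR8); IFNα by IFNα2b AlphaLISA (TLR7/TLR9).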

## CC(=O)NC12CCC(Cn3nc(C)c4c3CCN(c3cc(C)nc5c3cnn5C)C4)(CC1)CC2 [compound 47, N-(4-((5-(1,6-dimethyl-1H-pyrazolo[3,4-b]pyridin-4-yl)-3-methyl-4,5,6,7-tetrahydro-1H-pyrazolo[4,3-c]pyridin-1-yl)methyl)bicyclo[2.2.2]octan-1-yl)acetamide]
TLR9
  IC50: > 10 µM
TLR7
  IC50: 0.004 µM

## CCn1ncc2c(N3CCc4c(c(C)nn4CC45CCC(NC(=O)OC(C)(C)C)(CC4)CC5)C3)cc(C)nc21 [compound 145, tert-butyl (4-((5-(1-ethyl-6-methyl-1H-pyrazolo[3,4-b]pyridin-4-yl)-3-methyl-4,5,6,7-tetrahydro-1H-pyrazolo[4,3-c]pyridin-1-yl)methyl)bicyclo[2.2.2]octan-1-yl)carbamate]
TLR7
  IC50: 0.061 µM
TLR8
  IC50: > 10 µM
